Results taken from patent US11202773B2, “Locally bioavailable drugs” (UNIVERSITY OF HOUSTON SYSTEM, priority 2015, dated 2021).

Legend:
[1] = target: T1, mouse COX-2 (Mus musculus, UniProt Q05769); test: COX-2 activity (PGD2/PGE2 production) in LPS-induced Raw264.7 cells; type: cell-based; settings: for IC50: 0.1 μg/mL LPS, 14 hours co-incubation; for PGD2 production, % of control / PGD2 production by Raw264.7 cells: LPS, 14 hours; for PGD2 production by Raw264.7 cells: 1 μM compound, result in words
T1 construct: Raw264.7 is a mouse macrophage cell line which expresses a high level of COX-2 protein upon lipopolysaccharide (LPS) induction; endogenous in cells; host or cells: Raw264.7 (LPS-induced)
T1 sequence (Q05769 18-604): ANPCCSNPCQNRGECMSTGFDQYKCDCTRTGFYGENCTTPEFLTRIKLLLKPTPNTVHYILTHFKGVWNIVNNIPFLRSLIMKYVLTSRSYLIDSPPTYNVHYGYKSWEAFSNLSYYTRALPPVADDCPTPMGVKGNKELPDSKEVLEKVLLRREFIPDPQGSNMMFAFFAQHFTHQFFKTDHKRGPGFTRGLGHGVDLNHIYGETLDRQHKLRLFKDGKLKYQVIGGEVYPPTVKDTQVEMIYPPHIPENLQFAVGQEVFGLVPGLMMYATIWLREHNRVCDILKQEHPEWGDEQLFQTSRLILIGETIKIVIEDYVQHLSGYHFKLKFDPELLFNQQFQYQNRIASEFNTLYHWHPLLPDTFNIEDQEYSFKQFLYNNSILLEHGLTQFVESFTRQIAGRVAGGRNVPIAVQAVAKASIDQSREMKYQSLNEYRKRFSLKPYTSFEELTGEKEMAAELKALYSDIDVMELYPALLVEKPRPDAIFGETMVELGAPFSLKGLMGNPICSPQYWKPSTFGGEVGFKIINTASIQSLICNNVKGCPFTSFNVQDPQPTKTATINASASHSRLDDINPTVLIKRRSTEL
Protocol: First, the inhibitory effects of the new synthesized compounds on COX-2 were assayed in two cell lines: Raw264.7 cells and HCA-7 cells. Raw264.7 is a mouse macrophage cell line which expresses a high level of COX-2 protein upon lipopolysaccharide (LPS) induction. […] The concentration of prostaglandins (both PGD2 and PGE2) accumulated in the cell culture medium can be employed as an indicator of COX-2 activity. HCA-7 is a human colon cancer cell line in which COX-2 protein is constitutively expressed. Briefly, the cells were pre-incubated with different concentrations of the new compounds for 30 min, and then 10 μM A23187 (a calcium ionophore) was added to release membrane-bound arachidonic acid (the natural substrate of COX-2) to the cytosolic domain. The system was incubated for another 30 minutes and PGE2 concentrations in the culture medium were determined. In both cell lines, higher PGD2/PGE2 concentrations in the media meant more COX-2 activity.

[2] = target: T2, human COX-2 (Homo sapiens, UniProt P35354); test: In vitro enzyme assay, recombinant human COX-2 (PGE2 production); type: biochemical; settings: for IC50: read-out: IC50 against recombinant human COX-2; for Inhibition of COX-2 enzyme (PGE2 production, FIG. 3A): result in words
T2 sequence (P35354 18-604): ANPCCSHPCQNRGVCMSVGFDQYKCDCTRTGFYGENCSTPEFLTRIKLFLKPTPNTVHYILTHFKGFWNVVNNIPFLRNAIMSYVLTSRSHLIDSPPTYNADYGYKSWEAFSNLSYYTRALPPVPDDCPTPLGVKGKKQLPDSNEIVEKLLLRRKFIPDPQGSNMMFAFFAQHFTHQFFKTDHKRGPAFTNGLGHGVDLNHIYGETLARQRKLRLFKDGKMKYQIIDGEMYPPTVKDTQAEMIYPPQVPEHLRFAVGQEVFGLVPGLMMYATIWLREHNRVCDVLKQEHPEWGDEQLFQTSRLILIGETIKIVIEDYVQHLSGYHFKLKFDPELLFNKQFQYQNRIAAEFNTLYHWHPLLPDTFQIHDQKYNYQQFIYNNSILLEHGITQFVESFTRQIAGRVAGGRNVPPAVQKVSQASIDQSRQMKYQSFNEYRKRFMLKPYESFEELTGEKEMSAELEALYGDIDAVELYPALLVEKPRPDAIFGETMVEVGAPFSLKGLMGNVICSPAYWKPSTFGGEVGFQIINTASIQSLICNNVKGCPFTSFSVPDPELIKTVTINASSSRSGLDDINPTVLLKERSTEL
Text: FIG. 3A is a bar graph illustration of PGE2 production by recombinant human COX-2 enzyme in the presence of the new compounds. Less PGE2 production means inhibition of COX-2 enzyme.
FIG. 3B is a bar graph illustration of PGE2 production by recombinant human COX-2 enzyme in the presence of the metabolites of the new compounds. Less PGE2 production means inhibition of COX-2 enzyme.

[3] = target: recombinant human COX-1 (Homo sapiens, UniProt P23219); test: In vitro enzyme assay, recombinant human COX-1; type: biochemical; settings: read-out: IC50 against recombinant human COX-1
recombinant human COX-1, sequence (P23219 24-599): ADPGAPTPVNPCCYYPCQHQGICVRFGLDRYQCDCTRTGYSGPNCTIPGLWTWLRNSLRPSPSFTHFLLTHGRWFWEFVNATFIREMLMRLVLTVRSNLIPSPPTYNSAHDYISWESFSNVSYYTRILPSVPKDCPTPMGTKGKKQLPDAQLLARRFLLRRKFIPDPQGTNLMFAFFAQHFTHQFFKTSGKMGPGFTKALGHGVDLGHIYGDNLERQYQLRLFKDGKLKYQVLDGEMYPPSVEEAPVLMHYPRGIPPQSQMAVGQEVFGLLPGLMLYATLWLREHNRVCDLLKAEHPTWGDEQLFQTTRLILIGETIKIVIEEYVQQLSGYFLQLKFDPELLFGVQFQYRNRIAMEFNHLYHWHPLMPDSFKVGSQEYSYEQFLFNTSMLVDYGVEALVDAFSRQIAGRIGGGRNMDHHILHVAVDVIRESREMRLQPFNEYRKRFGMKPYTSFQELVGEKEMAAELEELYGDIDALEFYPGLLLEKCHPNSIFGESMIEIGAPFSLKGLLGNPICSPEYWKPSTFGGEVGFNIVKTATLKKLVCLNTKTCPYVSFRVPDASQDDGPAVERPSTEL

[4] = tested on: rat colon microsomes; test: Glucuronidation by rat colon microsomes; type: in vitro ADME
Protocol: FIG. 5B is a bar graph illustrating in vitro glucuronidation of phenolics in liver and colon microsomes of rats. Glucuronidation rates of 6a1-6a4 by rat liver and colon microsomes were measured. Additional metabolic rates of various locally bioavailable COX-2 inhibitors are in Table 3. […]. The incubation systems were: for glucuronidation, 0.88 mM magnesium chloride (MgCl2), 4.4 mM saccharolactone, 0.022 mg/mL alamethicin, 3.5 mM uridine 5′-diphospho-glucuronic acid (UDPGA), 10 μM substrates and different concentrations of microsomes in 50 mM potassium phosphate buffer (pH 7.4); for sulfation, 10 mM dithiothreitol (DTT), 5 mM MgCl2, 100 μM 3′-phosphoadenosine-5′-phosphosulfate (PAPS), 10 μM substrate and different concentrations of S9 fractions in 50 mM potassium phosphate buffer (pH 7.4).
(§1) In vitro tools were employed to help predict the in vivo metabolism rates of the COX-2 inhibitors that are phenolics. The microsomes and S9 fractions prepared from colon or liver were used to determine the in vivo glucuronidation and sulfation rates of the phenolic compounds, respectively. By employing microsomes and S9 fractions prepared from both rats and humans, it could be determined if the results obtained in the rat model could be reasonably extrapolated to humans. In these experiments, raloxifene and genistein, two phenolic compounds which undergo extensive first-pass metabolism, were selected as controls.

[5] = tested on: human liver microsomes; test: Glucuronidation by human liver microsomes; type: in vitro ADME
Protocol: (§2) FIG. 5D is a bar graph illustrating in vitro metabolism of phenolics. Glucuronidation rates of 6a1-6a4 by human liver and intestinal microsomes. Additional metabolic rates of various locally bioavailable COX-2 inhibitors are in Table 4. […]. The incubation systems were: for glucuronidation, 0.88 mM magnesium chloride (MgCl2), 4.4 mM saccharolactone, 0.022 mg/mL alamethicin, 3.5 mM uridine 5′-diphospho-glucuronic acid (UDPGA), 10 μM substrates and different concentrations of microsomes in 50 mM potassium phosphate buffer (pH 7.4); for sulfation, 10 mM dithiothreitol (DTT), 5 mM MgCl2, 100 μM 3′-phosphoadenosine-5′-phosphosulfate (PAPS),10 μM substrate and different concentrations of S9 fractions in 50 mM potassium phosphate buffer (pH 7.4).
as §1

[6] = tested on: human intestine microsomes; test: Glucuronidation by human intestine microsomes; type: in vitro ADME
Protocol: as §2, §1

Row | SMILES | IC50 [1] [µM] | PGD2 production, % of control ([1]; 1 μM 6a1, with glucuronidase (200 units/mL)) | PGD2 production, % of control ([1]; 1 μM 6a1, without glucuronidase) | PGD2 production by Raw264.7 cells [1] | IC50 [2] [µM] | Inhibition of COX-2 enzyme (PGE2 production, FIG. 3A) [2] | IC50 [3] [µM] | Glucuronidation rates by colon microsomes (Mean) [4] [pmol/mg/min] | Glucuronidation rates by liver microsomes (Mean) [5] [pmol/mg/min] | Glucuronidation rates by intestine microsomes (Mean) [6] [pmol/mg/min]
1 | Cc1ccc(-c2cc(COc3ccccc3O)nn2-c2ccc(S(N)(=O)=O)cc2)cc1 [Compound 6a1] | 1.39 ± 0.384 | 24.3 % of control | 67.5 % of control | only slightly reduced | 0.118 | effective inhibitors | 5.13 | 1111 | 11576 | 2786
2 | Cc1ccc(-c2cc(COc3cccc(O)c3)nn2-c2ccc(S(N)(=O)=O)cc2)cc1 [Compound 6a2] | 4.62 ± 1.34 |  |  | only slightly reduced | 0.201 | effective inhibitors | 27.2 | 1199 | 1512 | 924
3 | Cc1ccc(-c2cc(COc3ccc(O)cc3)nn2-c2ccc(S(N)(=O)=O)cc2)cc1 [Compound 6a3] | 0.019 ± 0.002 |  |  | thoroughly inhibited | 1.08 | effective inhibitors | 38.2 | 301 | 60 | 45
